{"source": "patent US20160297828A1", "about": "“SPIROCYCLIC COMPOUNDS CONTAINING SPIRO[INDOLYL-3,1'-PYRROLO[3,4-C]PYRROLE] CORE AND SULPHUR-CONTAINING AMINO ACID RESIDUES” (priority 2013, published 2016)", "key": {"11β-corticosterone": {"tested_on": "11β-corticosterone", "test": "11β-corticosterone level in venous blood of rats with bilateral carotid occlusion (ELISA)", "type": "in vivo, Wistar rats", "settings": "for dynamics in percents in relation to control pathology group / dynamics in percents in relation to the group of pseudo-operated animals / 11β-corticosterone level in venous blood: BCO", "protocol": "The neuroprotective effect of 3,2′-spiro-pyrrolo-2-oxindole derivative (SI-86 compound) was studied in Wistar rats on a model of cerebrovascular accident (CVA) of ischemic type in archencephalic pool forming bilateral carotid occlusion (BCO) by carotid artery ligation. The ligations for common carotid arteries was imposed under propofol anesthesia at a dose of 60 mg/kg intraperitoneally (ip), using surgical access to the front of the neck cutting through its white line. The chosen model allows to reproduce the clinical pattern of ischemic stroke and is adequate for clinical study of potential neuroprotective substances (Drug discovery and Evaluation: pharmacological assays/H. Gerhard Vogel (ed.).-2nd ed. 1453p.).\nThe derivative of 3,2′-spiro-pyrrolo-2-oxindole was investigated in conventionally effective dose of 10 mg/kg […] (iv)—dose which is provided maximum antihypoxic activity of SI-86 compound by the results of our previous study. The reference drugs were injected intraperitoneally (ip). BCO was applied to the rats of control pathology and 0.9% NaCI solution was administered as therapy calculated for 2 ml/kg ip.\nPseudo-operated rats were exposed to all interventions (anesthesia, skin incision, dissection of vessels) except arteries ligation that leveled traumatic impact of experimental conditions.\nTo determine a corticosterone level (species-specific cortisol analogue in rats, which is also a substrate for 11β-HSD1) in the corresponding period (4 th and 21 st CVA day) in rat by sagittal sinus puncture, blood was sampled (0.2-0.4 ml). The cortisol level was measured by ELISA using a CORTICOSTERONEE KIT set (Germany) on the instrument of the company “Hipson” (Czech Republic)."}, "[1]": {"tested_on": "rat heart bioelectrical activity", "test": "Acute asphyxia, duration of heart bioelectrical activity", "type": "in vivo, rats", "protocol": "Acute asphyxia was modeled in rats anesthetized with propofol (60 mg/kg) intraperitoneally (ip) by complete clamping the trachea at electrocardiogram (EGC) registration. The antihypoxic effect was evaluated by duration of heart bioelectric activity (HBA). This model allows to estimate the heart sensitivity to hypoxia. An isoelectric ECG line for 1 minute considered as HBA termination, the pint of HBA termination corresponded to the last QRS complex on the ECG. The calculation of […] activity was performed by the above formula considering a point of last QRS complex registration as a lifetime.\nThe preliminary screening of test substances was performed on ANHHH model. All derivatives were administered in the same dose of 10 mg/kg […] (iv) 1 hour prior to pathological state modeling. […] The effectiveness of a leader compound was evaluated at doses 5; 10 and 15 mg/kg iv. Mexydol was chosen as a reference drug having antihypoxic action in combination with antioxidant and membrane protective activity, which is successfully used in patients with CVA and IM. Mexydol was administered intraperitoneally (ip) at a dose of 100 mg/kg according to similar scheme."}}, "data": [{"smiles": "CSCC[C@@H]1N[C@@]2(C(=O)Nc3ccccc32)[C@@H]2C(=O)N(c3ccc(C)cc3)C(=O)[C@H]12", "note": "[SI-86, 5′-(4-Methylphenyl)-3′-[2-(methylthio)ethyl]-3a′,6a′-dihydro-2′H-spiro[indole-3,1′-pyrrolo[3,4-c]pyrrol]-2,4′,6′(1H,3′H,5′H)-trione]", "values": [{"measurement": "dynamics in percents in relation to control pathology group", "setting": "11β-corticosterone; day 4", "value": "[−60.2%]"}, {"measurement": "dynamics in percents in relation to the group of pseudo-operated animals", "setting": "11β-corticosterone; day 4", "value": "(+54.8%)"}, {"measurement": "11β-corticosterone level in venous blood", "setting": "11β-corticosterone; day 4, SI-86 10 mg/kg iv, citocoline 250 mg/kg ip", "value": "186.12 ± 1.43", "unit": "°*^# ng/ml"}, {"measurement": "dynamics in percents in relation to control pathology group", "setting": "11β-corticosterone; day 21", "value": "[−57.1%]"}, {"measurement": "dynamics in percents in relation to the group of pseudo-operated animals", "setting": "11β-corticosterone; day 21", "value": "(+55.2%)"}, {"measurement": "11β-corticosterone level in venous blood", "setting": "11β-corticosterone; day 21, same doses", "value": "144.67 ± 3.43", "unit": "°*^#• ng/ml"}, {"measurement": "ability to reduce corticosterone content, better than citocoline", "setting": "11β-corticosterone; CVA acute period", "value": 1.46, "unit": "times"}, {"measurement": "corticosterone concentration in sagittal sinus blood decreased in relation to the control pathology group", "setting": "11β-corticosterone; after 96 hours", "value": 60.2, "unit": "%"}, {"measurement": "corticosterone concentration in sagittal sinus blood decreased in relation to the control pathology group", "setting": "11β-corticosterone; after 21 days", "value": 57.1, "unit": "%"}, {"measurement": "ability to reduce corticosterone content, better than citocoline", "setting": "11β-corticosterone; recovery period", "value": 1.62, "unit": "times"}, {"measurement": "Antihypoxic activity", "setting": "[1]; 5 mg/kg iv", "value": "+12.1%"}, {"measurement": "Duration of heart bioelectrical activity", "setting": "[1]; 5 mg/kg iv", "value": "13.0 ± 1.5", "unit": "min"}, {"measurement": "Antihypoxic activity", "setting": "[1]; 10 mg/kg iv", "value": "+5.8%"}, {"measurement": "Duration of heart bioelectrical activity", "setting": "[1]; 10 mg/kg iv", "value": "12.3 ± 1.4", "unit": "min"}, {"measurement": "Antihypoxic activity", "setting": "[1]; 15 mg/kg iv", "value": "−2.8", "unit": "%"}, {"measurement": "Duration of heart bioelectrical activity", "setting": "[1]; 15 mg/kg iv", "value": "11.3 ± 1.0", "unit": "min"}]}]}
